Assay results as given in PubChem BioAssay AID2060901 (Molecular Pharmacology Branch, DTP, NCI, 2025).

System: 422866-222-R5-J1-PDC complex spheroids viability
Assay: Anticancer human tumor 422866-222-R5-J1-PDC patient-derived pancreatic adenocarcinoma cell line growth inhibition [RAS]
Settings: for IC50: curve of first compound; for viability, T/C: stronger effect = lower value
In short: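 Multi-cell-type spheroids: tumor cells plus HUVEC endothelial cells and mesenchymal stem cells. RAS-pathway inhibitors were combined with targeted agents, each dosed in half-log steps down from clinical Cmax, or from 10 microM when Cmax was unknown.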
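Further: spheroids exposed to compounds for 7 days.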
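Wherever viability, T/C is given: 100% = DMSO vehicle control viability.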

In the case of `Cc1nc(N2CCC3(CC2)COC(C)C3N)c(CO)nc1Sc1ccnc(N)c1Cl` (configuration not stated) + CCn1c(-c2cc(N3CCN(C)CC3)cnc2C(C)OC)c2c3cc(ccc31)-c1csc(n1)CC(NC(=O)C1CC1C)C(=O)N1CCCC(N1)C(=O)OCC(C)(C)C2, the IC50 (second compound 0.000949 µM) is reported as less than 31.6 nM, the IC50 (second compound 0.003 µM) is reported as less than 31.6 nM and the IC50 (second compound 0.00949 µM) is reported as less than 31.6 nM. For the same compound, the IC50 (second compound 0.03 µM) was less than 31.6 nM, the IC50 (second compound 0.0949 µM) was less than 31.6 nM and the IC50 (second compound 0.3 µM) was less than 31.6 nM. For the same compound, the viability, T/C (second compound 0.000949 µM, first compound 0.0316 µM) was 29.3%, the viability, T/C (second compound 0.000949 µM, first compound 0.1 µM) was 23.1% and the viability, T/C (second compound 0.000949 µM, first compound 0.316 µM) was 21.6%. It also gave a viability, T/C (second compound 0.000949 µM, first compound 1 µM) of 17.4%, a viability, T/C (second compound 0.000949 µM, first compound 3.16 µM) of 18.1% and a viability, T/C (second compound 0.000949 µM, first compound 10 µM) of 20.2%. For the same compound, the viability, T/C (second compound 0.003 µM, first compound 0.0316 µM) was 23.6%, the viability, T/C (second compound 0.003 µM, first compound 0.1 µM) was 18.5% and the viability, T/C (second compound 0.003 µM, first compound 0.316 µM) was 16.3%. The viability, T/C (second compound 0.003 µM, first compound 1 µM) was 16.7%, the viability, T/C (second compound 0.003 µM, first compound 3.16 µM) was 18.1% and the viability, T/C (second compound 0.003 µM, first compound 10 µM) was 21.2%. The viability, T/C (second compound 0.00949 µM, first compound 0.0316 µM) was 19.2%, the viability, T/C (second compound 0.00949 µM, first compound 0.1 µM) was 16.1% and the viability, T/C (second compound 0.00949 µM, first compound 0.316 µM) was 19.1%. The viability, T/C (second compound 0.00949 µM, first compound 1 µM) was 15.8%, the viability, T/C (second compound 0.00949 µM, first compound 3.16 µM) was 20.8% and the viability, T/C (second compound 0.00949 µM, first compound 10 µM) was 22.1%. The viability, T/C (second compound 0.03 µM, first compound 0.0316 µM) was 17.4%, the viability, T/C (second compound 0.03 µM, first compound 0.1 µM) was 16.3% and the viability, T/C (second compound 0.03 µM, first compound 0.316 µM) was 18.6%. It also gave a viability, T/C (second compound 0.03 µM, first compound 1 µM) of 17.5%, a viability, T/C (second compound 0.03 µM, first compound 3.16 µM) of 20.3% and a viability, T/C (second compound 0.03 µM, first compound 10 µM) of 20.4%. It also gave a viability, T/C (second compound 0.0949 µM, first compound 0.0316 µM) of 21%, a viability, T/C (second compound 0.0949 µM, first compound 0.1 µM) of 20.6% and a viability, T/C (second compound 0.0949 µM, first compound 0.316 µM) of 20%. The viability, T/C (second compound 0.0949 µM, first compound 1 µM) was 17.8%, the viability, T/C (second compound 0.0949 µM, first compound 3.16 µM) was 21.7% and the viability, T/C (second compound 0.0949 µM, first compound 10 µM) was 22.3%. For the same compound, the viability, T/C (second compound 0.3 µM, first compound 0.0316 µM) was 20.1%, the viability, T/C (second compound 0.3 µM, first compound 0.1 µM) was 20.2% and the viability, T/C (second compound 0.3 µM, first compound 0.316 µM) was 21.2%. The viability, T/C (second compound 0.3 µM, first compound 1 µM) was 18.1%, the viability, T/C (second compound 0.3 µM, first compound 3.16 µM) was 22.7% and the viability, T/C (second compound 0.3 µM, first compound 10 µM) was 24.4%.
